According to patent US12030876B2, “Aryl hydrocarbon receptor (AHR) agonists and uses thereof” (Ikena Oncology, Inc., priority 2019, dated 2024):
Where two headings read alike, the source gives them in different places.

Experiments:
AHR [1] = target: T1, AHR (Homo sapiens, UniProt P35869); assay: DRE-Luciferase Reporter Assay, HepG2 (agonist); assay type: cell-based; details: read-out: DRE-Luc HepG2 - Agonist: Average EC50
T1 construct: endogenous in cells; host or cells: HepG2 (human), transfected with a DRE-luciferase reporter only
T1 sequence (P35869 11-848): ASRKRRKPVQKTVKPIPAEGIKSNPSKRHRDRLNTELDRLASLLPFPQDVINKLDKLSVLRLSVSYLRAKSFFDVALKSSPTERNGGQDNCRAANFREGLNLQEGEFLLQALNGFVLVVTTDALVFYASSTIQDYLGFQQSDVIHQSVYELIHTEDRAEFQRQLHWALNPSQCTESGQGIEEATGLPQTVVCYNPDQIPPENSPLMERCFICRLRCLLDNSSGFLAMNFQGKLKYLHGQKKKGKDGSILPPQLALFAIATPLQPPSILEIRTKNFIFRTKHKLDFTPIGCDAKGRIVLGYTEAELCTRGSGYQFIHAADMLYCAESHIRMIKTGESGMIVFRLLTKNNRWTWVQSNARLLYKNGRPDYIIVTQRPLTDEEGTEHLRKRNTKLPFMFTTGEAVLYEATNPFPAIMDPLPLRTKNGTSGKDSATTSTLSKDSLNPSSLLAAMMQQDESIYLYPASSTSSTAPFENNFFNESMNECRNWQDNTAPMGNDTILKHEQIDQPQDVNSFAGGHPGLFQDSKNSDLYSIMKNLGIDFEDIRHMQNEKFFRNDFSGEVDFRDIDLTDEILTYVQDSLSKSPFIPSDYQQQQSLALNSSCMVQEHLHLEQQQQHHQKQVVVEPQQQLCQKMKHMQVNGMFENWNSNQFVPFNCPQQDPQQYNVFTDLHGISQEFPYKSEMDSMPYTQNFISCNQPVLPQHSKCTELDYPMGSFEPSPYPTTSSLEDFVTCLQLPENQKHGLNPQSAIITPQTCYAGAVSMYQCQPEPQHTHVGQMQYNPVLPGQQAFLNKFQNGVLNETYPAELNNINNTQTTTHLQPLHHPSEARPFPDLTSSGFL
Description: (§1) DRE-Luciferase Reporter Assay
(§2) AHR binds to Dioxin Responsive Elements (DRE) upstream of genes that it activates. One measure of AHR activity is activation of a reporter gene, such as luciferase, downstream of one or multiple DRE elements. Luciferase activity reflects activation and inhibition of AHR in the cells expressing this reporter.
(§3) Murine Hepa1-6 or Hepa-1c1c7 or other murine cell line with a DRE-luciferase reporter either stably or transiently transfected are plated in media in plates (96-well, 384-well or other plates) and incubated overnight at 37 C in a CO2 incubator. Likewise, human HepG2 or other human cell line with a DRE-luciferase reporter either stably or transiently transfected are plated in media in plates (96-well, 384-well or other plates) and incubated overnight at 37 C in a CO2 incubator.
(§4) The next day, an AHR agonist compound is added. Cells are incubated for 6, 16 or 24 hours or another time point and then lysed for determination of luciferase activity as a read-out of the AHR activation. Luciferase can be measured with a commercial kit such as the Promega Luciferase kit or any kit or reagents that provide the luciferin substrate for measuring luciferase activity. The level of luciferase with only activating ligand (e.g. such as TCDD, kynurenine, ITE (2-(1H-indole-3-ylcarbonyl)-4-thiazolecarboxylic methyl ester), VAF347, BNF (beta-naphthoflavone), ICZ (6-formylindolo(3,2-b) carbazole or other AHR ligands) added is the maximum signal while the luciferase with no ligand is the minimum signal. EC50s can be determined as the concentration which activates half of the maximum luciferase activity.

AHR [2] = target: T2, AHR (Mus musculus, UniProt P30561); assay: DRE-Luciferase Reporter Assay, Hepa1.6 (agonist); assay type: cell-based, murine; details: Hepa1.6, Table 3; read-out: DRE-Luc Hepa1.6 - Agonist: Average EC50
T2 sequence (P30561 1-848 F348L/P471L): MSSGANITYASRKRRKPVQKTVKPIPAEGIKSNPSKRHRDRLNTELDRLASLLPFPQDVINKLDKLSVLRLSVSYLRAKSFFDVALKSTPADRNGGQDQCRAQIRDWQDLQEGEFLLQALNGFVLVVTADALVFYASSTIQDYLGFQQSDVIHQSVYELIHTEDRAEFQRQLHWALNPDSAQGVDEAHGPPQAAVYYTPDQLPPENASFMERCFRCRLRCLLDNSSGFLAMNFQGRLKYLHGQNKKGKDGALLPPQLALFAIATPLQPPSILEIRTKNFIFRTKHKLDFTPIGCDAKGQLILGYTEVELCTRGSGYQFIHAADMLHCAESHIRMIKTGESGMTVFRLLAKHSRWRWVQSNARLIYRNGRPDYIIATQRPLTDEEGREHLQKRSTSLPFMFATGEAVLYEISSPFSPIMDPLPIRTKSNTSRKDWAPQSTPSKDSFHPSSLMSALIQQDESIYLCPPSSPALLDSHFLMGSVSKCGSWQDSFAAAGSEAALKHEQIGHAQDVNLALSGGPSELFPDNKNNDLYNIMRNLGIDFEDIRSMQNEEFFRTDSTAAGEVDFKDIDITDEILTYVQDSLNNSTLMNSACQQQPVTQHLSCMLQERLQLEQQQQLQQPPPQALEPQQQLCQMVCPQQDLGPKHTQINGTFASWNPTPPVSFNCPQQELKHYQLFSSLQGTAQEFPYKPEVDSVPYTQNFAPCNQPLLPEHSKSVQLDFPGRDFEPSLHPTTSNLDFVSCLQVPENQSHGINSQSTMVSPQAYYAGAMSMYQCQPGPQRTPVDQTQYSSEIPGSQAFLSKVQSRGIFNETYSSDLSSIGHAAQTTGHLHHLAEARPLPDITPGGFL
Description: as §1, §2, §3, §4

AHR [3] = target: T2, AHR; assay: P450 CYP1A1 Luciferase Assay, Hepa1.6 (agonist); assay type: cell-based, murine; details: Hepa1.6, Table 2
Description: P450 CYP1A1 Luciferase Assay
AHR binds to Dioxin Responsive Elements (DRE) upstream of genes that it activates. One measure of AHR activity is P450 CYP1A1 protein levels determined by measuring CYP1A1 enzyme activity using a luminogenic CYP1A1 luciferin-based substrate. Luciferase activity will reflect CYP1A1 activity resulting from activation of AHR in the cells.
Murine Hepa1-6 or Hepa-1c1c7 or other murine cell line, human HepG2 or other human cell line are plated in media (96-well, 384-well or other plates) and incubated overnight at 37 C in a CO2 incubator.
as §4, with “lysed and incubated with a CYP1A1 luciferase-based substrate (e.g. Luciferin-CEE)” for “lysed”, “3, 6, or 12 hours of another time point. Determination” for “determination”, “CYP1A1 enzyme activity” for “the AHR activation. Luciferase”, “P450 Glo CYP1A1 detection reagent” for “Luciferase kit”, “provide” for “provide the luciferin substrate”

SMILES | EC50 (AHR [1]; HepG2, Table 3) [nM] | EC50 (AHR [2]) [nM] | EC50 (AHR [3]) [nM] | EC50 (AHR [1]; HepG2, Table 2) [nM]
NC(=O)c1cccc(Nc2nc(-c3ccc[n+]([O-])c3)cs2)c1 [I-147] | 100 to 1000 | > 1000 |  | 
Nc1cc(-c2csc(Nc3cccc(C(F)(F)F)c3)n2)ccc1F [I-163] | < 10 | < 10 |  | 
O=c1ccc(-c2csc(Nc3cccc(C(F)(F)F)c3)n2)c[nH]1 [I-83] | < 10 | 100 to 1000 |  | 
Nc1cc(-c2csc(Nc3cccc(C(F)(F)F)c3)n2)c(F)cc1F [I-165] | < 10 | < 10 |  | 
O=C(O)c1cc(/N=N/c2cc(-c3csc(Nc4cccc(C(F)(F)F)c4)n3)ccc2F)ccc1O [I-178] | > 1000 | > 1000 |  | 
O=C(O)c1cc(/N=N/c2cccc(-c3csc(Nc4cccc(C(F)(F)F)c4)n3)c2)ccc1O [I-162] | > 1000 | > 1000 |  | 
C[n+]1cccc(-c2csc(Nc3cccc(C(F)(F)F)c3)n2)c1 [I-92] | < 10 | 100 to 1000 |  | 
O=c1cccc(-c2csc(Nc3cccc(C(F)(F)F)c3)n2)[nH]1 [I-130] | < 10 | < 10 |  | 
Fc1ccc(-c2csc(Nc3cccc(C(F)(F)F)c3)n2)cc1/N=N/c1cc(-c2csc(Nc3cccc(C(F)(F)F)c3)n2)ccc1F [I-171] | > 1000 | > 1000 |  | 
CNc1cc(-c2csc(Nc3cccc(C(F)(F)F)c3)n2)ccn1 [I-154] | < 10 | 10 to 100 |  | 
COC(=O)COc1cc(-c2csc(Nc3cccc(C(F)(F)F)c3)n2)ccn1 [I-160] | < 10 | > 1000 |  | 
Nc1ccc(F)c(-c2csc(Nc3cccc(C(F)(F)F)c3)n2)c1 [I-166] | < 10 | < 10 |  | 
Nc1ccccc1-c1csc(Nc2ccccc2C(F)(F)F)n1 [I-172] | 10 to 100 | > 1000 |  | 
CN(C)c1cc(-c2csc(Nc3cccc(C(F)(F)F)c3)n2)ccn1 [I-153] | 10 to 100 | > 1000 |  | 
N#Cc1cncc(-c2csc(Nc3cccc(C(F)(F)F)c3)n2)c1 [I-87] | < 10 | > 1000 |  | 
N#Cc1cc(-c2csc(Nc3cccc(C(F)(F)F)c3)n2)c[n+]([O-])c1 [I-100] | < 10 | > 1000 |  | 
FC(F)(F)c1cccc(-c2csc(Nc3cccc(Cl)c3)n2)c1 [I-32] |  |  | > 1000 | 10 to 100
C[N+](C)(C)CCNC(=O)N(c1cccc(C(F)(F)F)c1)c1nc(-c2cccc(Cl)c2)cs1 [I-8] |  |  | > 1000 | < 10
[O-][n+]1cccc(-c2csc(Nc3cccc(C(F)(F)F)c3)n2)c1 [I-9] |  |  | 10 to 100 | < 10
FC(F)(F)c1cccc(Nc2nc(-c3cccc(Cl)c3)ns2)c1 [I-58] |  |  | > 1000 | < 10

SMILES | EC50 (AHR [1]; HepG2, Table 3) [nM] | EC50 (AHR [2]) [nM] | EC50 (AHR [3]) [nM] | EC50 (AHR [1]; HepG2, Table 2) [nM]
O=[N+]([O-])c1ccccc1-c1csc(Nc2cccc(C(F)(F)F)c2)n1 [I-49] |  |  | > 1000 | > 1000
C[N+](C)(CO)CCNC(=O)N(c1cccc(C(F)(F)F)c1)c1nc(-c2cccc(C#N)c2)cs1 [I-16] |  |  | 100 to 1000 | < 10
N#Cc1cccc(-c2csc(Nc3cccc(C(F)(F)F)c3)n2)c1 [I-14] |  |  | 10 to 100 | < 10
N=C(N)c1cccc(-c2csc(Nc3cccc(C(F)(F)F)c3)n2)c1 [I-44] |  |  | > 1000 | 100 to 1000
FC(F)(F)Oc1cccc(-c2csc(Nc3cccc(C(F)(F)F)c3)n2)c1 [I-36] |  |  | > 1000 | 100 to 1000
O=[N+]([O-])c1cncc(-c2csc(Nc3cccc(C(F)(F)F)c3)n2)c1 [I-7] |  |  | 100 to 1000 | < 10
O=[N+]([O-])c1cccc(Nc2nc(-c3cccc(Cl)c3)cs2)c1 [I-38] |  |  | > 1000 | 100 to 1000
C[N+](C)(CCO)CCNC(=O)N(c1cccc(C(F)(F)F)c1)c1nc(-c2cccc(Cl)c2)cs1 [I-3] |  |  | 100 to 1000 | < 10
C[N+]1(CCNC(=O)N(c2cccc(C(F)(F)F)c2)c2nc(-c3cccc(Cl)c3)cs2)CCCCC1 [I-28] |  |  | > 1000 | 10 to 100
FC(F)(F)c1cccc(Nc2nc(-c3cccnc3)cs2)c1 [Compound P-8] |  |  | 100 to 1000 | < 10
FC(F)(F)c1cccc(Nc2nc(-c3ccccn3)cs2)c1 [Compound P-9] |  |  | > 1000 | < 10
Cc1sc(Nc2cccc(C(F)(F)F)c2)nc1-c1cccc(Cl)c1 [I-27] |  |  | > 1000 | 10 to 100
Cc1ccc(-c2csc(Nc3cccc(C(F)(F)F)c3)n2)cc1[N+](=O)[O-] [I-11] |  |  | 100 to 1000 | < 10
Clc1cccc(-c2csc(Nc3cccnc3)n2)c1 [Compound P-12] |  |  | > 1000 | 10 to 100
C[N+](C)(C)CCC(=O)Nc1cccc(-c2csc(Nc3cccc(C(F)(F)F)c3)n2)c1 [I-34] |  |  | > 1000 | 100 to 1000
C[N+](C)(C)CCCNC(=O)N(c1cccc(C(F)(F)F)c1)c1nc(-c2cccc(Cl)c2)cs1 [I-24] |  |  | > 1000 | 10 to 100
FC(F)(F)c1cccc(Nc2nc(-c3ccncc3)cs2)c1 [Compound P-6] |  |  | > 1000 | < 10
NC(=O)c1cccc(-c2csc(Nc3cccc(C(F)(F)F)c3)n2)c1 [I-22] |  |  | 100 to 1000 | < 10
FC(F)(F)c1cccc(Nc2nc(-c3ccccc3Cl)cs2)c1 [I-19] |  |  | > 1000 | < 10
